Series [1] concerns TNF-induced NF-κB reporter gene activity. As to the kind of experiment: TNF-induced NF-κB reporter counter-screen in HEK293-NFκB-Luc cells. As to conditions: TNF 10 ng/mL; CID-2858522 at concentrations as high as 4 μM. The format is cell-based. As for the experimental part:
(A) Structures of two hit compounds, CID-2858522 (left) and CID-2998237 (right) are shown; (B, C) 293-NF-κB-luc cells were pretreated for 2 hrs with various concentration of either CID-2858522 (B) or CID-29982387 (C) and then stimulated with TNF (10 ng/mL) or PMA/lonomycin (10 ng/mL; 5 ng/mL) for 16 h. Luciferase activity was measured and data were expressed as a percentage relative to control treatment with DMSO only (mean±SD; n=3). (D) 293-NF-κB-luc cells were pretreated for 2 h with various concentrations of CID-2858522 or CID-2998237, then stimulated with PMA/lonomycin for 16 h. IL-8 release into the medium was measured, expressing data as a percentage relative to control cultures treated with DMSO (mean±SD; n=3). (E) 293-NF-κB-luc cells were pretreated with CID-2858522 and then stimulated with PDBu for 16 h, IL-8 production and NF-κB luciferase activity were measured as above. (F) 293-NF-κB-luc cells were pretreated for 2 h with various concentrations of CID-2858522 or a PKC inhibitor (Bisindolylmaleimide I) at 1 μM followed by PMA/Ionomycin (10 ng/mL) stimulation for 2 h, then p65-DNA-binding activity was measured in nuclear extracts (10 μg protein), expressing data as fold-increase relative to unstimulated cells (mean±SD; n=3).
Counter Screening and Secondary Assays. […] Luciferase activity was measured using Britelite kit (Perkin Elmer). […]

In a further series the test system is HEK293 cells. As to the kind of experiment: Cell viability assay (ATPlite), HEK293 cells. It counts as cell-based. As for the experimental part: Cell viability assay. Cell viability was estimated based on cellular ATP levels, measured using ATPlite kit (Perkin Elmer). Cells at a density of 10^5/mL were seeded at 90 μL per well in 96-well white plates and cultured overnight. Compounds were added (5 μL in medium) to wells and cells were cultured for […], Finally, 50 μL ATPlite solution was added to each well and luminescence activity was read using a luminometer (LJL Biosystems, Sunnyvale, Calif.).

Series [2] has as its system Anti-Lymphotoxin-β induced NF-κB luciferase activity. As to the kind of experiment: NF-κB luciferase in HeLa cells induced by anti-Lymphotoxin-β receptor. It counts as cell-based. The conditions noted are these: listed as CID-2858522. From the text:
FIG. 1 is a flow chart of screening and counter-screenings for selective inhibitors of antigen-receptor induced NF-κB pathway. A total of 114,889 compounds were screened. From a screen of 53,280 commercially available compounds (left column), 519 hits were obtained, of which 248 reconfirmed using the same primary screening assay. […] From these 11 active compounds, one hit, CID-2858522, inhibited PMA/Ionomycin-induced production of cytokine IL-8 by the HEK293 cell line. CID-2858522 was then characterized (right column). PDB was substituted for PMA to confirm suppression of an alternative PKC activator. Pathway selectivity was assessed using panels of cell lines, starting with HEK293 cells in which each of the remaining NF-κB activation pathways was stimulated, showing inhibition only of PMA/Ionomycin-induced NF-κB reporter gene activity (panel 1). […]

In another series the test system is Raf. As to the kind of experiment: KINOMEscan competition binding assay, Raf. Also on record: species or system human. As to conditions: 10 μM. From the text:
CID-2858522 is not a potent protein kinase inhibitor. Protein kinases play critical roles in NF-κB activation. PKCs are proximal kinases in the NF-κB pathways activated by PMA/Ionomycin and by T- and B-cell antigen receptors, while the IKKs are distal kinases operating in the terminal segments of these and other NF-κB activation pathways. We therefore tested whether CID-2858522 inhibits members of these kinase families by in vitro kinase assays. For these experiments, we tested PKC-beta and PKC-theta (the PKC family members implicated in TCR/BCR signaling), and IKK-beta (a component of the IKK complex) (FIG. 6). […] In addition to assessing these three kinases by conventional in vitro kinase assays, a kinome screen was performed using a high throughput screening method, KINOMEscan™, which is an active-site dependent competition binding assay in which human kinases of interest are fused to a proprietary tag (Ambit). The amount of kinase bound to an immobilized, active-site directed ligand is measured in the presence and absence of the test compound. […] Thus, CID-2858522 inhibits none of the protein kinases previously implicated in regulating NF-κB.
In Vitro Kinase Assays. PKC-beta, PKC-theta and IKK-beta in vitro kinase assays were performed using the HTScan Kinase Assay Kit (Cell Signaling, Danvers, Mass.) according to manufacturer's protocols. […]

SMILES strings stand for the structures. Entries after “also recorded” stand apart in the source; their conditions may differ.

Regarding `Cc1cc2nc(NCCCO)n(CC(=O)c3cc(C(C)(C)C)c(O)c(C(C)(C)C)c3)c2cc1C` [Compound 1, 2-(2-(3-Hydroxypropylamino)-5,6-dimethyl-1H-benzo[d]imidazol-1-yl)-1-(3,5-di-tert-butyl-4-hydroxyphenyl)ethanone], the “inhibition of TNF-induced NF-κB reporter gene activity” value in series [1] was “did not inhibit”. For the same molecule, the “concentrations not toxic to HEK293 cells” value in the series on HEK293 cells is ≤ 8 µM. The “suppression of NF-κB luciferase, anti-Lymphotoxin-β in HeLa” value in series [2] is given as “failed to inhibit; also recorded: did not suppress”. Also, the “inhibition of Raf” value with Raf was 57%.

(Values after patent US20090247520A1, “INHIBITORS OF ANTIGEN RECEPTOR-INDUCED NF-kappa B ACTIVATION” (The Burnham Institute for Medical Research, priority 2008, published 2009).)
